Details in all cases: stereoisomer not certain
Data set [1] is described as follows: RP, Phenomenex Kinetex EVO C18, 150 × 3 mm, 2.6 µm, 40 °C, 0.35 mL/min, estimated dead time 1.9 min; A: water + 5 mM ammonium formate, pH 5; B: acetonitrile; gradient (min/%B) 0/5 20/100 25/100 30/5.
The nature of data set [2]: RP, Phenomenex Kinetex PS C18, 150 × 3 mm, 2.6 µm, 40 °C, 0.35 mL/min, estimated dead time 1.9 min; A: water + 5 mM ammonium acetate, pH 5; B: methanol; gradient (min/%B) 0/5 20/100 25/100 30/5.
The nature of data set [3]: RP, Phenomenex Kinetex EVO C18, 150 × 3 mm, 2.6 µm, 40 °C, 0.35 mL/min, estimated dead time 1.9 min; A: water + 0.1% formic acid, pH 3; B: methanol; gradient (min/%B) 0/5 20/100 25/100 30/5.

Consider `O=[N+]([O-])c1ccc2ccc3cccc4ccc1c2c34` [1-Nitropyrene], for which the LC retention time was 14.8 min in data set [1] and 18.4 min in data set [2].
Taken in the same sequence, the figures for `Oc1ccc2ccc3cccc4ccc1c2c34` [1-hydroxypyrene] were 13.1 min and 16.7 min.
In the case of `c1ccc2n[nH]nc2c1` [1H-Benzotriazole], the LC retention time in data set [3] is 7.35 min; in data set [1], 5 min; in data set [2], 8.12 min.
Take `CSc1nc2ccccc2s1` [2-(Methylthio)benzothiazole]: the LC retention time in data set [3] is 15.2 min; in data set [1], 11.6 min; in data set [2] it was 15 min.
On to `O=C(O)c1ccc2ccccc2c1` [2-naphthoic acid], for which the LC retention time in data set [3] was 14.1 min; in data set [2] it was 13 min.
`Nc1ccc(Cl)cc1` [4-Chloroaniline]: the results for the LC retention time in data set [3], in data set [1] and in data set [2] were 5.28 min, 8.88 min and 10.3 min, respectively.
Taken in the same sequence, the figures for `Cc1ccc2n[nH]nc2c1` [5-Methyl-1H-benzotriazole] were 9.78 min, 6.42 min and 10.4 min.
As for `CC12CCC3c4ccc(O)cc4CCC3C1CCC2O` (stereo not drawn) [17beta estradiol], the LC retention time in data set [3] is 15.2 min; in data set [1], 11.2 min; in data set [2] it was 15.8 min.
With `CC(C)C1=CC2=CCC3C(C)(C(=O)O)CCCC3(C)C2CC1` (configuration not stated) [Abietic acid], the LC retention time was 16.9 min in data set [1] and 20.3 min in data set [2].
Consider `CCc1cccc(CC)c1N(COC)C(=O)CCl` [Alachlor], for which the LC retention time in data set [3] was 16.2 min; in data set [1] it was 13 min; in data set [2], 16.4 min.
As for `CCN=C1NC(NC(C)C)=NC(Cl)N1` (configuration not stated) [Atrazine], the LC retention time in data set [3] was 13.6 min; in data set [2], 13.9 min.
In the case of `c1ccc2scnc2c1` [Benzothiazole], the LC retention time in data set [3] was 11.2 min; in data set [1] it was 7.96 min; in data set [2], 11.5 min.
Regarding `CC(O)(CS(=O)(=O)c1ccc(F)cc1)C(=O)Nc1ccc(C#N)c(C(F)(F)F)c1` (configuration not stated) [Bicalutamide], the LC retention time in data set [3] was 14.4 min; in data set [1] it was 12.2 min; in data set [2] it was 14.6 min.
As for `Cn1c(=O)c2c(ncn2C)n(C)c1=O` [Caffeine], the LC retention time in data set [3] was 6.69 min; in data set [1], 3.88 min; in data set [2] it was 7.93 min.
Regarding `NC(=O)N1c2ccccc2C=Cc2ccccc21` [Carbamazepine], the LC retention time in data set [3] is 12.6 min; in data set [2], 13.2 min.
`c1ccc2c(c1)[nH]c1ccccc12` [Carbazole]: the LC retention time in data set [3] is 15.5 min; in data set [1] it was 12.5 min; in data set [2], 15.1 min.
Taken in the same sequence, the figures for `Nc1cnn(-c2ccccc2)c(=O)c1Cl` [Chloridazon] were 8.88 min, 6.18 min and 9.65 min.
Consider `CCOP(=S)(OCC)Oc1nc(Cl)c(Cl)cc1Cl` [Chlorpyrifos], for which the LC retention time was 15.9 min in data set [1] and 18.8 min in data set [2].
In the case of `NS(=O)(=O)c1cc(C2(O)NC(=O)c3ccccc32)ccc1Cl` (configuration not stated) [Chlorthalidone], the LC retention time in data set [3] is 9.19 min; in data set [1], 6.87 min; in data set [2] it was 9.81 min.
Taken in the same sequence, the figures for `CC12CCC(=O)C=C1CCC1C2C(O)CC2(C)C(C(=O)CO)CCC12` (configuration not stated) [Corticosterone] were 14 min, 9.72 min and 15 min.
For `CCN=C1NC(Cl)NC(NC(C)(C)C#N)N1` (configuration not stated) [Cyanazine] the same measures were 11.4 min, 8.86 min and 12 min.
For `CN(C)C(=O)Nc1ccc(Cl)c(Cl)c1` [Diuron] the same measures were 13.9 min, 10.6 min and 14.1 min.
On to `O=C1Nc2ccc(Cl)cc2C(C#CC2CC2)(C(F)(F)F)O1` (configuration not stated) [Efavirenz], for which the LC retention time in data set [3] was 16.8 min; in data set [1] it was 13.6 min; in data set [2] it was 16.7 min.
For `CC12CCC3c4ccc(O)cc4CCC3C1CCC2=O` (configuration not stated) [Estrone] the same measures were 15.1 min, 11.7 min and 15.7 min.
With `CCCSP(=O)(OCC)SCCC` [Ethoprop], the LC retention time in data set [2] was 16.5 min.
`N#Cc1nn(-c2c(Cl)cc(C(F)(F)F)cc2Cl)c(N)c1S(=O)C(F)(F)F` (configuration not stated) [Fipronil]: the LC retention time in data set [3] was 16.7 min; in data set [2], 16.6 min.
Turning to `COc1ccc(Cl)cc1C(=O)NCCc1ccc(S(=O)(=O)NC(=O)NC2CCCCC2)cc1` [Glibenclamide], the values for the LC retention time in data set [3], in data set [1] and in data set [2] were 16.2 min, 12.5 min and 16 min, respectively.
As for `CCC1=C(C)CN(C(=O)NCCc2ccc(S(=O)(=O)NC(=O)NC3CCC(C)CC3)cc2)C1=O` (configuration not stated) [Glimepiride], the LC retention time in data set [1] is 12.8 min; in data set [2], 16.5 min.
For the molecule `NS(=O)(=O)c1cc2c(cc1Cl)NCNS2(=O)=O` [Hydrochlorothiazide], the LC retention time in data set [3] was 4.62 min; in data set [1], 9.77 min; in data set [2], 13.8 min.
For `CC(=O)OCC(=O)C1(O)CCC2C3CCC4=CC(=O)CCC4(C)C3C(O)CC21C` (configuration not stated) [Hydrocortisonacetate] the same measures were 14.3 min, 10.6 min and 15 min.
Take `C1=Cc2ccccc2Nc2ccccc21` [Iminostilbene]: the values for the LC retention time in data set [3], in data set [1] and in data set [2] were 15.7 min, 13 min and 15.5 min, respectively.
As to `CCCCC1=NC2(CCCC2)C(=O)N1Cc1ccc(-c2ccccc2-c2nn[nH]n2)cc1` [Irbesartan], the LC retention time in data set [3] was 14.5 min; in data set [1] it was 9.45 min; in data set [2], 14.6 min.
Turning to `CSC1N=C(NC2CC2)NC(NC(C)(C)C)N1` (configuration not stated) [Irgarol], the LC retention time in data set [2] is 16.6 min.
On the same count and under the same terms, in the case of `Nc1nc(N)nc(N)n1` [Melamine] it was 2.33 min.
As to `Cc1cccc(C)c1N(Cn1cccn1)C(=O)CCl` [Metazachlor], the LC retention time in data set [3] was 13.7 min; in data set [1], 10.6 min; in data set [2], 14.1 min.
Taken in the same sequence, the figures for `CCc1cccc(C)c1N(C(=O)CCl)C(C)COC` (configuration not stated) [Metolachlor] were 16.3 min, 12.9 min and 16.6 min.
For the molecule `COC(=O)C1CCCCC1S(=O)(=O)NC(=O)NC1=NC(OC)NC(C)N1` (configuration not stated) [Metsulfuron-methyl], the LC retention time in data set [3] is 12.2 min; in data set [1], 5.28 min; in data set [2] it was 9.47 min.
In the case of `CNC(=O)C=C(C)OP(=O)(OC)OC` [Monocrotophos], the figures for the LC retention time in data set [3], in data set [1] and in data set [2] were 6.95 min, 4.17 min and 7.86 min, respectively.
As for `CN(C)C(=O)Nc1ccc(Cl)cc1` [Monuron], the LC retention time was 11.5 min in data set [3], 8.56 min in data set [1] and 11.9 min in data set [2].
On to `NC(=O)c1cccnc1` [Nicotinamide], for which the LC retention time in data set [2] was 3.85 min.
In the case of `C#CC1(O)CCC2C3CCC4=CC(=O)CCC4C3CCC21C` (configuration not stated) [Norethindrone], the LC retention time in data set [3] was 14.9 min; in data set [1], 11.2 min; in data set [2], 15.9 min.
For `CCOP(=S)(OCC)Oc1ccc([N+](=O)[O-])cc1` [Parathion] the same measures were 16.8 min, 14.2 min and 16.7 min.
Regarding `Cc1cc(=O)n(-c2ccccc2)n1C` [Phenazone (Antipyrine)], the values for the LC retention time in data set [3] and in data set [2] were 7.82 min and 9.04 min, respectively.
Take `CC(=O)C1CCC2C3CCC4=CC(=O)CCC4(C)C3CCC12C` (configuration not stated) [Progesterone]: the LC retention time in data set [3] is 16.9 min; in data set [1], 13.3 min; in data set [2], 17.8 min.
For `CSC1N=C(NC(C)C)NC(NC(C)C)=N1` [Prometryn], the LC retention time was 12.5 min in data set [1] and 16.2 min in data set [2].
Regarding `CCC(=O)Nc1ccc(Cl)c(Cl)c1` [Propanil], the LC retention time is 14.9 min in data set [3], 11.8 min in data set [1] and 15 min in data set [2].
For `CCCc1cc(=O)[nH]c(=S)[nH]1` [Propylthiouracil] the same measures were 6.85 min, 4.45 min and 7.7 min.
Consider `c1ccc2nccnc2c1` [Quinoxaline], for which the LC retention time was 8.84 min in data set [3], 5.73 min in data set [1] and 9.84 min in data set [2].
For `CCN=C1NC(=NCC)NC(Cl)N1` (configuration not stated) [Simazine] the same measures were 11.9 min, 8.6 min and 12.4 min.
As for `CCC(C)(C)C(=O)OC1CC(C)C=C2C=CC(C)C(CCC3CC(O)CC(=O)O3)C21` (configuration not stated) [Simvastatin], the LC retention time in data set [1] was 14.9 min; in data set [2], 19.1 min.
For `CCCCC(=O)N(Cc1ccc(-c2ccccc2-c2nn[nH]n2)cc1)C(C(=O)O)C(C)C` (configuration not stated) [Valsartan] the same measures were 8.73 min and 13.5 min.

The values are drawn from the RepoRT retention time repository (doi:10.1016/j.chroma.2022.462867).
